Patent US12077537B2 (Gilead Sciences, Inc., priority 2020, dated 2024)
pEC50: −log10 of the molar value.

Tested on: HIV-IIIb
Assay: Antiviral assay in MT4 cells
Format: cell-based
Details: Human immunodeficiency virus 1, MT4, 120 h; MT-4 cells mixed with HIV-IIIb at m.o.i. 0.003; 5 days at 37° C.; CellTiter-Glo luminescence; 50% decrease in signal, a measure of HIV-1 replication
Summary of the method: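 Compound, tested at ten 3-fold dilutions in quadruplicate in 10% FBS medium, received MT-4 cells pre-mixed 1 hour with HIV-IIIb (m.o.i. 0.003). Protection was read as luminescent cell viability (CellTiter-Glo) after 5 days' culture at 37° C.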

Row | pEC50 | Structure (SMILES)
1 | 7.56 | CC(CN(C)C)Nc1nc2nc([C@H](Cc3cc(F)cc(F)c3)NC(=O)Cn3nc(C(F)(F)F)c4c3C(F)(F)[C@@H]3C[C@H]43)c(-c3cccc4c(NS(C)(=O)=O)nn(C)c34)cc2s1 (stereo partly drawn) [Example 67, 2-((3bS,4aR)-5,5-difluoro-3-(trifluoromethyl)-3b,4,4a,5-tetrahydro-1H-cyclopropa[3,4]cyclopenta[1,2-c]pyrazol-1-yl)-N-((1S)-2-(3,5-difluorophenyl)-1-(2-((1-(dimethylamino)propan-2-yl)amino)-6-(1-methyl-3-(methylsulfonamido)-1H-indazol-7-yl)thiazolo[4,5-b]pyridin-5-yl)ethyl)acetamide]
2 | 8.04 | COCCNc1nc2nc([C@H](Cc3cc(F)cc(F)c3)NC(=O)Cn3nc(C(F)(F)F)c4c3C(F)(F)[C@@H]3C[C@H]43)c(-c3cccc4c(NS(C)(=O)=O)nn(C)c34)cc2s1 [Example 69, 2-((3bS,4aR)-5,5-difluoro-3-(trifluoromethyl)-3b,4,4a,5-tetrahydro-1H-cyclopropa[3,4]cyclopenta[1,2-c]pyrazol-1-yl)-N—((S)-2-(3,5-difluorophenyl)-1-(2-((2-methoxyethyl)amino)-6-(1-methyl-3-(methylsulfonamido)-1H-indazol-7-yl)thiazolo[4,5-b]pyridin-5-yl)ethyl)acetamide]
3 | 7.17 | Cn1nc(NS(C)(=O)=O)c2cccc(-c3cc4sc(N5CC(C(N)=O)C5)nc4nc3[C@H](Cc3cc(F)cc(F)c3)NC(=O)Cn3nc(C(F)(F)F)c4c3C(F)(F)[C@@H]3C[C@H]43)c21 [Example 73, 1-(5-((S)-1-(2-((3bS,4aR)-5,5-difluoro-3-(trifluoromethyl)-3b,4,4a,5-tetrahydro-1H-cyclopropa[3,4]cyclopenta[1,2-c]pyrazol-1-yl)acetamido)-2-(3,5-difluorophenyl)ethyl)-6-(1-methyl-3-(methylsulfonamido)-1H-indazol-7-yl)thiazolo[4,5-b]pyridin-2-yl)azetidine-3-carboxamide]
4 | 8.03 | Cn1nc(NS(C)(=O)=O)c2cccc(-c3cc4sc(NCCN5CCOCC5)nc4nc3[C@H](Cc3cc(F)cc(F)c3)NC(=O)Cn3nc(C(F)(F)F)c4c3C(F)(F)[C@@H]3C[C@H]43)c21 [Example 75, 2-((3bS,4aR)-5,5-difluoro-3-(trifluoromethyl)-3b,4,4a,5-tetrahydro-1H-cyclopropa[3,4]cyclopenta[1,2-c]pyrazol-1-yl)-N—((S)-2-(3,5-difluorophenyl)-1-(6-(1-methyl-3-(methylsulfonamido)-1H-indazol-7-yl)-2-((2-morpholinoethyl)amino)thiazolo[4,5-b]pyridin-5-yl)ethyl)acetamide]
5 | 7.83 | CNc1nc2nc([C@H](Cc3cc(F)cc(F)c3)NC(=O)Cn3nc(C(F)(F)F)c4c3C(F)(F)[C@@H]3C[C@H]43)c(-c3cccc4c(NS(C)(=O)=O)nn(C)c34)cc2s1 [Example 79, 2-((3bS,4aR)-5,5-difluoro-3-(trifluoromethyl)-3b,4,4a,5-tetrahydro-1H-cyclopropa[3,4]cyclopenta[1,2-c]pyrazol-1-yl)-N—((S)-2-(3,5-difluorophenyl)-1-(6-(1-methyl-3-(methylsulfonamido)-1H-indazol-7-yl)-2-(methylamino)thiazolo[4,5-b]pyridin-5-yl)ethyl)acetamide]

The remaining lines, values behind:

Row | Structure (SMILES) | pEC50
6 | CCN1CCN(c2nc3nc([C@H](Cc4cc(F)cc(F)c4)NC(=O)Cn4nc(C(F)(F)F)c5c4C(F)(F)[C@@H]4C[C@H]54)c(-c4cccc5c(NS(C)(=O)=O)nn(C)c45)cc3s2)CC1 [Example 68, 2-((3bS,4aR)-5,5-difluoro-3-(trifluoromethyl)-3b,4,4a,5-tetrahydro-1H-cyclopropa[3,4]cyclopenta[1,2-c]pyrazol-1-yl)-N—((S)-2-(3,5-difluorophenyl)-1-(2-(4-ethylpiperazin-1-yl)-6-(1-methyl-3-(methylsulfonamido)-1H-indazol-7-yl)thiazolo[4,5-b]pyridin-5-yl)ethyl)acetamide] | 8.17
7 | Cn1nc(NS(C)(=O)=O)c2cccc(-c3cc4sc(NCC5(O)CC5)nc4nc3[C@H](Cc3cc(F)cc(F)c3)NC(=O)Cn3nc(C(F)(F)F)c4c3C(F)(F)[C@@H]3C[C@H]43)c21 [Example 70, 2-((3bS,4aR)-5,5-difluoro-3-(trifluoromethyl)-3b,4,4a,5-tetrahydro-1H-cyclopropa[3,4]cyclopenta[1,2-c]pyrazol-1-yl)-N—((S)-2-(3,5-difluorophenyl)-1-(2-(((1-hydroxycyclopropyl)methyl)amino)-6-(1-methyl-3-(methylsulfonamido)-1H-indazol-7-yl)thiazolo[4,5-b]pyridin-5-yl)ethyl)acetamide] | 7.86
8 | Cn1nc(NS(C)(=O)=O)c2cccc(-c3cc4sc(NCc5ncc[nH]5)nc4nc3[C@H](Cc3cc(F)cc(F)c3)NC(=O)Cn3nc(C(F)(F)F)c4c3C(F)(F)[C@@H]3C[C@H]43)c21 [Example 71, N—((S)-1-(2-(((1H-imidazol-2-yl)methyl)amino)-6-(1-methyl-3-(methylsulfonamido)-1H-indazol-7-yl)thiazolo[4,5-b]pyridin-5-yl)-2-(3,5-difluorophenyl)ethyl)-2-((3bS,4aR)-5,5-difluoro-3-(trifluoromethyl)-3b,4,4a,5-tetrahydro-1H-cyclopropa[3,4]cyclopenta[1,2-c]pyrazol-1-yl)acetamide] | 7.28
9 | Cn1nc(NS(C)(=O)=O)c2cccc(-c3cc4sc(N5CCNC(=O)C5)nc4nc3[C@H](Cc3cc(F)cc(F)c3)NC(=O)Cn3nc(C(F)(F)F)c4c3C(F)(F)[C@@H]3C[C@H]43)c21 [Example 72, 2-((3bS,4aR)-5,5-difluoro-3-(trifluoromethyl)-3b,4,4a,5-tetrahydro-1H-cyclopropa[3,4]cyclopenta[1,2-c]pyrazol-1-yl)-N—((S)-2-(3,5-difluorophenyl)-1-(6-(1-methyl-3-(methylsulfonamido)-1H-indazol-7-yl)-2-(3-oxopiperazin-1-yl)thiazolo[4,5-b]pyridin-5-yl)ethyl)acetamide] | 7.49
10 | Cn1nc(NS(C)(=O)=O)c2cccc(-c3cc4sc(N5CCC5C(N)=O)nc4nc3[C@H](Cc3cc(F)cc(F)c3)NC(=O)Cn3nc(C(F)(F)F)c4c3C(F)(F)[C@@H]3C[C@H]43)c21 (stereo partly drawn) [Example 74, 1-(5-((S)-1-(2-((3bS,4aR)-5,5-difluoro-3-(trifluoromethyl)-3b,4,4a,5-tetrahydro-1H-cyclopropa[3,4]cyclopenta[1,2-c]pyrazol-1-yl)acetamido)-2-(3,5-difluorophenyl)ethyl)-6-(1-methyl-3-(methylsulfonamido)-1H-indazol-7-yl)thiazolo[4,5-b]pyridin-2-yl)azetidine-2-carboxamide] | 7.24
11 | Cn1nc(NS(C)(=O)=O)c2cccc(-c3cc4sc(N5CCN(C6COC6)CC5)nc4nc3[C@H](Cc3cc(F)cc(F)c3)NC(=O)Cn3nc(C(F)(F)F)c4c3C(F)(F)[C@@H]3C[C@H]43)c21 [Example 76, 2-((3bS,4aR)-5,5-difluoro-3-(trifluoromethyl)-3b,4,4a,5-tetrahydro-1H-cyclopropa[3,4]cyclopenta[1,2-c]pyrazol-1-yl)-N—((S)-2-(3,5-difluorophenyl)-1-(6-(1-methyl-3-(methylsulfonamido)-1H-indazol-7-yl)-2-(4-(oxetan-3-yl)piperazin-1-yl)thiazolo[4,5-b]pyridin-5-yl)ethyl)acetamide] | 8.35
12 | Cn1nc(NS(C)(=O)=O)c2cccc(-c3cc4sc(N5CC6(COC6)C5)nc4nc3[C@H](Cc3cc(F)cc(F)c3)NC(=O)Cn3nc(C(F)(F)F)c4c3C(F)(F)[C@@H]3C[C@H]43)c21 [Example 77, 2-((3bS,4aR)-5,5-difluoro-3-(trifluoromethyl)-3b,4,4a,5-tetrahydro-1H-cyclopropa[3,4]cyclopenta[1,2-c]pyrazol-1-yl)-N—((S)-2-(3,5-difluorophenyl)-1-(6-(1-methyl-3-(methylsulfonamido)-1H-indazol-7-yl)-2-(2-oxa-6-azaspiro[3.3]heptan-6-yl)thiazolo[4,5-b]pyridin-5-yl)ethyl)acetamide] | 7.80
13 | CC1CC1Nc1nc2nc([C@H](Cc3cc(F)cc(F)c3)NC(=O)Cn3nc(C(F)(F)F)c4c3C(F)(F)[C@@H]3C[C@H]43)c(-c3cccc4c(NS(C)(=O)=O)nn(C)c34)cc2s1 (stereo partly drawn) [Example 78, 2-((3bS,4aR)-5,5-difluoro-3-(trifluoromethyl)-3b,4,4a,5-tetrahydro-1H-cyclopropa[3,4]cyclopenta[1,2-c]pyrazol-1-yl)-N-((1S)-2-(3,5-difluorophenyl)-1-(6-(1-methyl-3-(methylsulfonamido)-1H-indazol-7-yl)-2-((2-methylcyclopropyl)amino)thiazolo[4,5-b]pyridin-5-yl)ethyl)acetamide] | 7.37
14 | Cn1nc(NS(C)(=O)=O)c2cccc(-c3cc4sc(N5CCC6(CC5)CNC(=O)O6)nc4nc3[C@H](Cc3cc(F)cc(F)c3)NC(=O)Cn3nc(C(F)(F)F)c4c3C(F)(F)[C@@H]3C[C@H]43)c21 [Example 80, 2-((3bS,4aR)-5,5-difluoro-3-(trifluoromethyl)-3b,4,4a,5-tetrahydro-1H-cyclopropa[3,4]cyclopenta[1,2-c]pyrazol-1-yl)-N—((S)-2-(3,5-difluorophenyl)-1-(6-(1-methyl-3-(methylsulfonamido)-1H-indazol-7-yl)-2-(2-oxo-1-oxa-3,8-diazaspiro[4.5]decan-8-yl)thiazolo[4,5-b]pyridin-5-yl)ethyl)acetamide] | 7.61
15 | Cn1nc(NS(C)(=O)=O)c2cccc(-c3cc4sc(NC5(C)CC5)nc4nc3[C@H](Cc3cc(F)cc(F)c3)NC(=O)Cn3nc(C(F)(F)F)c4c3C(F)(F)[C@@H]3C[C@H]43)c21 [Example 81, 2-((3bS,4aR)-5,5-difluoro-3-(trifluoromethyl)-3b,4,4a,5-tetrahydro-1H-cyclopropa[3,4]cyclopenta[1,2-c]pyrazol-1-yl)-N—((S)-2-(3,5-difluorophenyl)-1-(6-(1-methyl-3-(methylsulfonamido)-1H-indazol-7-yl)-2-((1-methylcyclopropyl)amino)thiazolo[4,5-b]pyridin-5-yl)ethyl)acetamide] | 7.73
